Data: the NIST ThermoML archive (doi:10.1021/acs.jced.8b00554)

Experiment: xn = mol fraction of the nth substance listed
Conditions: 333.15 K, Liquid, Vibrating tube method

CCCCCCCC [octane] + CCCO
Conditions	mass density [kg/m3]
5010 kPa, x2 = 0.2111	682.8
5020 kPa, x2 = 0.1631	680.6
5020 kPa, x2 = 0.3158	688.8
5020 kPa, x2 = 0.4411	698.53
5020 kPa, x2 = 0.7301	726.33
6000 kPa, x2 = 0.2111	683.81
6010 kPa, x2 = 0.3158	689.87
6010 kPa, x2 = 0.4411	699.54
6010 kPa, x2 = 0.7301	727.35
6010 kPa, x2 = 0.8823	750.8
6020 kPa, x2 = 0.1631	681.62
7000 kPa, x2 = 0.1631	682.67
7000 kPa, x2 = 0.2111	684.85
7000 kPa, x2 = 0.3158	690.9
7010 kPa, x2 = 0.4411	700.57
7010 kPa, x2 = 0.8823	751.79
7020 kPa, x2 = 0.7301	728.39
8000 kPa, x2 = 0.8823	752.76
8010 kPa, x2 = 0.1631	683.7
8010 kPa, x2 = 0.7301	729.39
8020 kPa, x2 = 0.2111	685.89
8020 kPa, x2 = 0.3158	691.91
8020 kPa, x2 = 0.4411	701.57
9000 kPa, x2 = 0.4411	702.6
9010 kPa, x2 = 0.1631	684.68
9010 kPa, x2 = 0.2111	686.89
9010 kPa, x2 = 0.3158	692.93
9010 kPa, x2 = 0.7301	730.37
9010 kPa, x2 = 0.8823	753.69
10000 kPa, x2 = 0.2111	687.87
10000 kPa, x2 = 0.8823	754.64
10010 kPa, x2 = 0.3158	693.93
10010 kPa, x2 = 0.7301	731.35
10020 kPa, x2 = 0.1631	685.68
10020 kPa, x2 = 0.4411	703.57
11000 kPa, x2 = 0.3158	694.92
11010 kPa, x2 = 0.1631	686.66
11010 kPa, x2 = 0.4411	704.56
11010 kPa, x2 = 0.7301	732.33
11010 kPa, x2 = 0.8823	755.6
11020 kPa, x2 = 0.2111	688.87
12000 kPa, x2 = 0.2111	689.87
12000 kPa, x2 = 0.4411	705.54
12010 kPa, x2 = 0.8823	756.54
12020 kPa, x2 = 0.1631	687.66
12020 kPa, x2 = 0.3158	695.9
12020 kPa, x2 = 0.7301	733.28
13000 kPa, x2 = 0.8823	757.44
13010 kPa, x2 = 0.3158	696.87
13020 kPa, x2 = 0.1631	688.62
13020 kPa, x2 = 0.2111	690.84
13020 kPa, x2 = 0.4411	706.46
13020 kPa, x2 = 0.7301	734.24
14010 kPa, x2 = 0.2111	691.78
14010 kPa, x2 = 0.3158	697.84
14010 kPa, x2 = 0.4411	707.42
14010 kPa, x2 = 0.8823	758.35
14020 kPa, x2 = 0.1631	689.54
14020 kPa, x2 = 0.7301	735.17
15000 kPa, x2 = 0.1631	690.49
15000 kPa, x2 = 0.2111	692.73
15010 kPa, x2 = 0.4411	708.36
15020 kPa, x2 = 0.3158	698.76
15020 kPa, x2 = 0.7301	736.09
15020 kPa, x2 = 0.8823	759.26
16000 kPa, x2 = 0.1631	691.42
16000 kPa, x2 = 0.4411	709.26
16010 kPa, x2 = 0.2111	693.66
16010 kPa, x2 = 0.3158	699.72
16010 kPa, x2 = 0.8823	760.14
16020 kPa, x2 = 0.7301	737.02
17010 kPa, x2 = 0.2111	694.6
17010 kPa, x2 = 0.3158	700.63
17010 kPa, x2 = 0.4411	710.16
17010 kPa, x2 = 0.7301	737.93
17020 kPa, x2 = 0.1631	692.33
17020 kPa, x2 = 0.8823	761.01
18000 kPa, x2 = 0.1631	693.25
18010 kPa, x2 = 0.3158	701.51
18010 kPa, x2 = 0.4411	711.06
18010 kPa, x2 = 0.7301	738.78
18010 kPa, x2 = 0.8823	761.87
18020 kPa, x2 = 0.2111	695.49
19000 kPa, x2 = 0.1631	694.12
19000 kPa, x2 = 0.3158	702.41
19000 kPa, x2 = 0.7301	739.68
19000 kPa, x2 = 0.8823	762.72
19010 kPa, x2 = 0.2111	696.36
19020 kPa, x2 = 0.4411	711.94
20000 kPa, x2 = 0.1631	694.96
20000 kPa, x2 = 0.2111	697.38
20010 kPa, x2 = 0.3158	703.29
20010 kPa, x2 = 0.7301	740.54
20010 kPa, x2 = 0.8823	763.55
20020 kPa, x2 = 0.4411	711.91
